{
  "source": "ChEMBL document CHEMBL5375972",
  "about": "“Discovery of Novel 2,3-Dihydro-1H-indene-5-sulfonamide NLRP3 Inflammasome Inhibitors Targeting Colon as a Potential Therapy for Colitis” (J Med Chem, 2023)",
  "format_in_all_cases": "functional, organism-based",
  "settings_in_all_cases": "time 9.0 day",
  "key": {"Mus musculus [1]": {"system": "Mus musculus", "experiment": "Anti-inflammatory activity in DSS-induced ulcerative colitis C57BL/6 mouse model assessed as reduction in disease activity index (DAI) score at 10 mg/kg,ip administrated for 9 days"}, "Mus musculus [2]": {"system": "Mus musculus", "experiment": "Anti-inflammatory activity in DSS-induced ulcerative colitis C57BL/6 mouse model assessed as reduction in histological colitis severity score at 10 mg/kg,ip administrated for 9 days"}, "Mus musculus [3]": {"system": "Mus musculus", "experiment": "Anti-inflammatory activity in DSS-induced ulcerative colitis C57BL/6 mouse model assessed as increase in colon length at 10 mg/kg,ip administrated for 9 days"}, "Mus musculus [4]": {"system": "Mus musculus", "experiment": "Anti-inflammatory activity in DSS-induced ulcerative colitis C57BL/6 mouse model assessed as increase in body weight at 10 mg/kg,ip administrated for 9 days"}},
  "note": "The source made the active and inactive calls. No cut-off for these calls is given here.",
  "data": [
    {"compound": "CC(C)(O)c1coc(S(=O)(=O)NC(=O)Nc2c3c(cc4c2CCC4)CCC3)c1", "values": [
      {"measurement": "Activity", "setting": "Mus musculus [1]", "result": "Active"},
      {"measurement": "Activity", "setting": "Mus musculus [2]", "result": "inactive"},
      {"measurement": "Activity", "setting": "Mus musculus [3]", "result": "Active"},
      {"measurement": "Activity", "setting": "Mus musculus [4]", "result": "Active"}
    ]}
  ]
}
